# Test results: the NIST ThermoML archive (doi:10.1021/acs.jced.5b00542)
# ± gives the expanded uncertainty stated by the source.
# Conditions: 298.15 K; 101.33 kPa; Liquid; Vibrating tube method
row,mass density [kg/m3],Structure (SMILES)
1,874 ± 20,c1ccccc1 [benzene]
2,779 ± 20,C1CCCCC1 [cyclohexane]
3,798 ± 20,CC(C)O [propan-2-ol]
4,659 ± 20,CCCCCC [hexane]
